Entries after “also recorded” stand apart in the source; their conditions may differ.
Tests used:
GST-tagged SIRT6 [1] = molecular target: T1, GST-tagged SIRT6 (Homo sapiens, UniProt Q8N6T7); test: HPLC-based SIRT6 deacetylation assay with H3K9Ac peptide;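 as to all read-outs here: recombinant SIRT6 incubated 30 min at 37 °C with 500 µM NAD+ and H3K9Ac peptide, deacetylated H3K9 quantified by reversed-phase HPLC-MRM peak area versus DMSO control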; format: biochemical; details: for inhibition at 100 µM / Activation 100 µM / Inhibition % 100 µM: 100 µM compound; for inhibition at 100 µM / inhibition at 10 µM / Activation 100 µM / Inhibition % 10 µM / Inhibition % 100 µM: mean ± SD, n=3; for inhibition at 10 µM / Inhibition % 10 µM: 10 µM compound; for Activation 100 µM: 40 µM H3K9Ac, fold per Fig. 2C legend
T1 construct: made in house; host or cells: E. coli BL21(DE3)-pRARE

GST-tagged SIRT6 [2] = molecular target: T1, GST-tagged SIRT6; set-up: method as in PMID 26607666; details: cited from earlier work
GST-SIRT6 = molecular target: T2, GST-SIRT6 (Homo sapiens, UniProt Q8N6T7); test: In vitro SIRT6 deacetylation of core histones, western blot of H3K9Ac; format: biochemical; details: 100 µM
T2 construct: made in house; host or cells: E. coli BL21(DE3)-pRARE
Procedure: Western blot analysis was carried out as previously described, with slight modifications. […] The reaction was stopped with Laemmli (sample buffer) and separated by SDS-PAGE using 10–20% gradient gels and transferred onto polyvinylidene difluoride (PVDF) membranes. H3K9 acetylation was detected with rabbit anti-acetyl H3K9 antibody followed by anti-rabbit HRP-conjugated secondary antibody. Membranes were stripped and re-probed with rabbit anti-histone H3 antibody. Chemiluminescent signal detection and image acquisition were carried out using ECL prime western blotting detection reagents.
3 μg/well of a purified recombinant GST‐SIRT6 protein, 1.25 μg purified whole chicken core histones with 500 μM NAD+ in 25 mM Tris‐HCl, pH 8.0. Analysis were repeated three times and one representative cropped blot is shown (A). Uncropped blots probed with H3K9Ac (B), H3 (C). […]

[3] = tested on: SIRT6 protein expression in Caco-2 cells; test: Immunoblotting of SIRT6 protein expression in Caco-2 cells; format: cell-based, human; details: 24 h; for SIRT6 expression, in words: Caco-2 cells
Procedure: (§1) After the treatment, conditions of the cells were evaluated under a light microscope (Fig. 3A). […] Full-length blots are presented in Supplementary Fig. S4.
(§2) (B) Immunoblotting analysis of SIRT6 protein. SIRT6 protein levels (MW: 39 kDa) were normalized relative to α-tubulin (MW: 50 kDa) and quantification is represented as fold change respect to control. Values are expressed as mean ± SEM of four independent experiment (*p values < 0.05; one way-ANOVA). SIRT6 expression were determined by immunoblotting (B).
(§3) Caco-2 cells (passage 30–40) were cultured in DMEM with 10% FBS, 1% nonessential amino acids, 2 mM L-glutamine, 100 units/ml of penicillin, and 100 µg/ml of streptomycin at +37 °C. Cells were cultured 14 days before the treatments. For the immunoblotting, cells were seeded on 24-well plates (1 × 10^5 cells/well).
(§4) After treatment, medium was discarded and cells were washed twice with ice-cold PBS. RIPA buffer was added to the cells and incubated for 30 min. Cell suspensions were collected and centrifuged (13,000 rpm, 20 min +4 °C). Supernatant containing the proteins were aliquoted and stored at −80 °C. Sample protein concentrations were measured with Bradford Assay (Bio-Rad DC^TM Protein Assay).
Immunoblotting was performed according to standard protocols from four independent experiments. Briefly, protein samples (18 µg/sample) were separated by SDS-PAGE using 10–20% gradient gels and transferred onto PVDF membranes. Membranes were blocked in 3% non-fat dry milk and further incubated with primary rabbit anti- FoxO3α (1:2000), anti-GLUT1 (1:1000), anti-H3, anti-SIRT6 (1:2000), anti-Twist (1:2000) anti-α-tubulin (1:8000) antibodies overnight at +4 °C. HRP-conjugated secondary antibodies (goat anti-rabbit, goat anti-mouse) were incubated for 1 hour at room temperature and proteins were detected using ELC prime western blotting system. Densitometric analysis of protein bands was carried out using ImageJ 1.32 software and the data were normalized by α-tubulin (loading control).

[4] = tested on: FoxO3α protein expression in Caco-2 cells; test: Immunoblotting of FoxO3α protein expression in Caco-2 cells; format: cell-based, human; details: Caco-2, 24 h, 50 and 100 µM
Procedure: as §1
(§5) FoxO3α, Twist1 and GLUT1 expression were quantified and normalised with α-tubulin or H3. Data represent the mean ± SEM of three independent experiments,*p < 0.05, **p < 0.01 and ***p < 0.001 between the indicated groups.
as §3, §4
(§6) Immunoblotting was performed according to standard protocols from four independent experiments. […] HRP-conjugated secondary antibodies (goat anti-rabbit, goat anti-mouse) were incubated for 1 hour at room temperature and proteins were detected using ELC prime western blotting system. […]

[5] = tested on: Twist1 protein expression in Caco-2 cells; test: Immunoblotting of Twist1 protein expression in Caco-2 cells; format: cell-based, human; details: Caco-2, 24 h, 100 µM
Procedure: as §1, §5, §3, §4, §6

[6] = tested on: GLUT1 protein expression in Caco-2 cells; test: Immunoblotting of GLUT1 protein expression in Caco-2 cells; format: cell-based, human; details: Caco-2, 24 h, 100 µM
Procedure: as §1, §5, §3, §4, §6

Caco-2 cells = test: Light microscopy of Caco-2 cells after treatment; format: cell-based, human; details: 200 µM
Procedure: as §1, §2, §3

T1 sequence (Q8N6T7 whole entry): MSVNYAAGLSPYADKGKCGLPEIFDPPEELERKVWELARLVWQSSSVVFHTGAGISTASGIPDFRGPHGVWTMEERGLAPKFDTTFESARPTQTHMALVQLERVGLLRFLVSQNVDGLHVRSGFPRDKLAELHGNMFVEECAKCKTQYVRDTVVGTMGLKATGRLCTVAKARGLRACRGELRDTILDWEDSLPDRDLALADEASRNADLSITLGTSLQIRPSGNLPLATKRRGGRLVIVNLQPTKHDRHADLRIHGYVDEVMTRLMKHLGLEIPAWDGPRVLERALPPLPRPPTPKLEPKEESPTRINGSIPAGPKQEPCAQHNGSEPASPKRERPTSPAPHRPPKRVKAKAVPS
T2 sequence (Q8N6T7 whole entry): as above

Structure (SMILES)	inhibition at 100 µM (GST-tagged SIRT6 [1]) [%]	SIRT6 inhibition, in words (GST-tagged SIRT6 [1])	inhibition at 10 µM (GST-tagged SIRT6 [1]) [%]	Activation 100 µM (GST-tagged SIRT6 [1]) [fold]	also measured
Oc1cc(O)c2c(c1)O[C@H](c1ccc(O)c(O)c1)[C@H](O)C2 [Compound 6, (−)-Epicatechin]	10 ± 0.1				
O=c1cc(-c2ccc(O)c(O)c2)oc2cc(O)cc(O)c12 [Compound 13, Luteolin]	29 ± 0.3	weak inhibitor	24 ± 1.8	1.2 ± 0.04	Modulation of SIRT6 deacetylation activity, in words (GST-tagged SIRT6 [2]): increase SIRT6 deacetylation activity at high concentrations, while also inhibiting deacetylation activity at low concentrations
O=c1cc(-c2ccc(O)cc2)oc2cc(O)cc(O)c12 [Compound 12, Apigenin]	1 ± 0.6			0.9 ± 0.01	SIRT6 activation, in words (GST-tagged SIRT6 [1]): inactive
Oc1cc(O)c2c(c1)O[C@@H](c1cc(O)c(O)c(O)c1)[C@H](O)C2 [Compound 3, (−)-Gallocatechin]	23 ± 1	weak inhibitor	17 ± 0.8	0.2 ± 0.01	
O=c1c(O)c(-c2ccc(O)c(O)c2)oc2cc(O)cc(O)c12 [Compound 15, Quercetin]	40 ± 3	inhibitors as well as activators depending on the concentration	27 ± 0.4	1.5 ± 0.1	Modulation of SIRT6 deacetylation activity, in words (GST-tagged SIRT6 [2]): increase SIRT6 deacetylation activity at high concentrations, while also inhibiting deacetylation activity at low concentrations
O=C(O[C@@H]1Cc2c(O)cc(O)cc2O[C@@H]1c1cc(O)c(O)c(O)c1)c1cc(O)c(O)c(O)c1 [Compound 9, (−)-Epigallocatechin gallate]	42 ± 1.9	moderate inhibition	10 ± 1.4	0.8 ± 0.04	
COc1cc(CCC(=O)O)ccc1O [Compound 23, 3-(4-Hydroxy-3-methoxyphenyl)propionic acid]	-12 ± 1.1			1.8 ± 0.05	SIRT6 activation, in words (GST-tagged SIRT6 [1]): increased slightly SIRT6 activation
O=C1C[C@@H](c2ccc(O)c(O)c2)Oc2cc(O)cc(O)c21 [Compound 11, Eriodictoyl]		did not improve the inhibitory activity towards SIRT6 compared to compound 1		1.1	Inhibition % 10 µM (GST-tagged SIRT6 [1]): 19 ± 2.2%; Inhibition % 100 µM (GST-tagged SIRT6 [1]): 27 ± 1.5%
O=C1C[C@@H](c2ccc(O)cc2)Oc2cc(O)cc(O)c21 [Compound 10, Naringenin]	23 ± 1.5	did not improve the inhibitory activity towards SIRT6 compared to compound 1	8.3 ± 1.1	1.1 ± 0.05	
O=C(O[C@@H]1Cc2c(O)cc(O)cc2O[C@@H]1c1ccc(O)c(O)c1)c1cc(O)c(O)c(O)c1 [Compound 8, (−)-Epicatechin gallate]	60 ± 3.6		15 ± 0.9	0.1 ± 0.01	
O=c1c(O)c(-c2cc(O)c(O)c(O)c2)oc2cc(O)cc(O)c12 [Compound 16, Myricetin]	0				
O=C(O[C@@H]1Cc2c(O)cc(O)cc2O[C@H]1c1ccc(O)c(O)c1)c1cc(O)c(O)c(O)c1 [Compound 4, (−)-Catechin gallate]			62 ± 0.7	0.1 ± 0.03	
COc1cc(/C=C/C(=O)O)cc(OC)c1O [Compound 27, Sinapic Acid]		inactive		0.6 ± 0.2	Inhibition % 100 µM (GST-tagged SIRT6 [1]): 8.0 ± 0.9%
O=c1c(O)c(-c2ccc(O)cc2)oc2cc(O)cc(O)c12 [Compound 14, Kaempferol]	24 ± 1.7	inhibitors as well as activators depending on the concentration	40 ± 0.8	2.2 ± 0.1	Maximal activation (fold) (GST-tagged SIRT6 [1]; at saturating concentrations of compound): 3.0 fold
O=C(O[C@@H]1Cc2c(O)cc(O)cc2O[C@H]1c1cc(O)c(O)c(O)c1)c1cc(O)c(O)c(O)c1 [Compound 5, (−)-Gallocatechin gallate]			79 ± 0.5	0.01 ± 0.01	
COc1ccc(-c2coc3cc(O)cc(O)c3c2=O)cc1 [Compound 20, Biochanin A]		weak SIRT6 inhibitors		1.3 ± 0.02	SIRT6 activation, in words (GST-tagged SIRT6 [1]): able to activate deacetylation of SIRT6; Inhibition % 10 µM (GST-tagged SIRT6 [1]): 13 ± 0.5%; Inhibition % 100 µM (GST-tagged SIRT6 [1]): 24 ± 0.9%
Oc1cc(O)c2c(c1)O[C@H](c1ccc(O)c(O)c1)[C@@H](O)C2 [Compound 1, (+)-Catechin]	26		17 ± 1.6	0.8 ± 0.02	
O=C(O)C=Cc1ccc(O)cc1 [Compound 24, p-Coumaric acid]	8.5 ± 1.2	inactive		0.6 ± 0.1	
O=C(O)/C=C/c1ccc(O)c(O)c1 [Compound 25, Caffeic Acid]	-5.9 ± 0.2	inactive		1.0 ± 0.01	
Oc1cc(O)c2cc(O)c(-c3cc(O)c(O)c(O)c3)[o+]c2c1 [Compound 18, Delphinidin]	0			2.2 ± 0.1	SIRT6 activation, in words (GST-tagged SIRT6 [1]): increase in deacetylase activity; also recorded: weaker activity against SIRT6 than compound 17; Increase of deacetylation activity (H3K9Ac on core histones) (GST-SIRT6): ~2.5 fold
O=c1c(-c2ccc(O)cc2)coc2cc(O)cc(O)c12 [Compound 19, Genistein]	9.6 ± 1.4	weak SIRT6 inhibitors	1.8 ± 0.3	0.7 ± 0.2	
Oc1cc(O)c2cc(O)c(-c3ccc(O)c(O)c3)[o+]c2c1 [Compound 17, Cyanidin]	0			2.6 ± 0.1	SIRT6 activation, in words (GST-tagged SIRT6 [1]): increase in deacetylase activity; Increase of deacetylation activity (H3K9Ac on core histones) (GST-SIRT6): ~2.5 fold; SIRT6 expression up-regulation ([3]; Caco-2, 50–100 µM, relative to control): 3.5 fold; SIRT6 expression, in words [3]: effective in a dose-dependent manner; SIRT6 expression, in words ([3]; listed as Cyanidin): significantly increased SIRT6 expression; FoxO3α protein expression, in words [4]: enhanced the protein expression of FOXO3 significantly; Twist1 expression, in words [5]: downregulated; GLUT1 expression, in words [6]: downregulated; Precipitation in cell culture medium (Caco-2 cells): precipitated out of solution
O=C(O)c1cc(O)c(O)c(O)c1 [Compound 22, Gallic Acid]	14 ± 1.2			1.4 ± 0.04	SIRT6 activation, in words (GST-tagged SIRT6 [1]): increased slightly SIRT6 activation
NC(=O)c1cccnc1 [Compound 21, Nicotinamide, reference compound]					inhibition at 1000 µM (GST-tagged SIRT6 [1]): 58 ± 1.3%
Oc1cc(O)c2c(c1)O[C@@H](c1ccc(O)c(O)c1)[C@H](O)C2 [Compound 2, (−)-Catechin]	54		25 ± 0.8	0.4 ± 0.04	
COc1cc(/C=C/C(=O)O)ccc1O [Compound 26, trans-Ferulic acid]		inactive		0.9 ± 0.6	Inhibition % 100 µM (GST-tagged SIRT6 [1]): -8.6 ± 0.3%
